Columns and labels:
[1] = molecular target: T1, SMYD3 (Homo sapiens, UniProt Q9H7B4); assay: SMYD3 Scintillation Proximity Assay (SPA), methylation of MAP3K2 Peptide; assay type: biochemical; conditions: SMYD3 full length enzyme 10 nM, 3H-SAM 125 nM, MAP3K2 Peptide 1 μM, 120 min at 22° C.
T1 construct: The SMYD3 full length enzyme was produced in-house by expression (with an N-terminal 6×His tag) in E. coli; 6xHis (N); made in house; host or cells: E. coli
T1 sequence (Q9H7B4 1-428): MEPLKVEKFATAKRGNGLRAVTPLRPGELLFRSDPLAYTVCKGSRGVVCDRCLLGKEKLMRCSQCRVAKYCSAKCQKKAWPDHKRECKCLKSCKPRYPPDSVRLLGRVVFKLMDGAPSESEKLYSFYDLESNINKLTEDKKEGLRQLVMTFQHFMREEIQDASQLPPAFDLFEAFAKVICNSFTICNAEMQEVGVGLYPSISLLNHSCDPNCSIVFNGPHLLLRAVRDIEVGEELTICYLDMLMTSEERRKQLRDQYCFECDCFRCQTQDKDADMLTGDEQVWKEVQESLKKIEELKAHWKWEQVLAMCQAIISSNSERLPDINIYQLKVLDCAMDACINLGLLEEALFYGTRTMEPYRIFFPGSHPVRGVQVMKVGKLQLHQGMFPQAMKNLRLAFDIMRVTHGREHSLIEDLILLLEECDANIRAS
Method: SMYD3 Scintillation Proximity Assay (SPA)
The SMYD3 full length enzyme was produced in-house by expression (with an N-terminal 6×His tag) in E. coli and purification by affinity chromatography on a Ni-NTA Sepharose column followed by a size exclusion chromatography step on a Superdex 200 16/60 column (GE Healthcare).
To this end, 100-fold concentrated compound solutions (in DMSO) were previously prepared by serial dilution (1:3.4) of 2 mM stocks in a clear low volume 384-well source microtiter plate (Greiner Bio-One), from which 100 nl of compounds were transferred into a white low volume test microtiter plate from the same supplier. […] The resulting mixture (5 μl final volume) was shortly centrifuged (2 min., 1500 rpm) and incubated at 22° C. during 120 min. […] Plates containing the stopped reaction were sealed with transparent adhesive foil (Perkin Elmer), centrifuged (2 min., 1500 rpm), and further incubated overnight at 4° C. in order to allow the SPA signals to develop. Subsequently, the amount of product was evaluated by measuring the energy transfer from the […] emitted by the 3H-labeled substrate to the scintillator co-polymerized in the bead's matrix, using a TopCount NXT scintillation counter (Packard) with the standard instrument settings for this purpose. The resulting scintillation counts were taken as indicator for the amount of methylated peptide per well. […] IC50 values were calculated by fitting the normalized inhibition data to a 4-parameter logistic equation using the XLFit analysis software (IDBS).

[2] = molecular target: T2, untagged full length SMYD3 (Homo sapiens, UniProt Q9H7B4); assay: Thermal Shift Assay; assay type: binding; conditions: protein 1.5-2.0 μM, 5× SYPRO Orange, scans 25° C. to 80° C.; control 4% DMSO
T2 construct: As protein untagged full length SMYD3 was used
T2 sequence (Q9H7B4 1-428): T1 sequence (Q9H7B4 1-428)
Method: Thermal Shift Assay Thermal melting experiments were performed with a ViiA™ Real-Time PCR machine (Thermo Fisher Scientific) in 384-well microliter plate with a final volume of 5 μL. Melting curves were obtained at a protein concentration of 1.5-2.0 μM and 5× SYPRO Orange (Invitrogen) using buffer containing 20 mM Tris pH7.0; 150 mM NaCl; 1.0 mM DTT. As protein untagged full length SMYD3 was used. […] As control 4% DMSO was used. Scans were measured from 25° C. to 80° C. at a scanning rate of 0.1° C./sec. All TSA data were analyzed by using Genedata Assay Analyzer.

| Structure (SMILES) | IC50 [1] [nM] | Thermal shift assay (° C.) [2] [°C] |
| --- | --- | --- |
| Cc1nocc1C(=O)N1c2ccc(C(=O)NCCC3CCC3)cc2NC(=O)C(C)C1C (single isomer, unassigned) [Example 13, N-(2-cyclobutylethyl)-2,3-dimethyl-1-[(3-methyl-1,2-oxazol-4-yl)carbonyl]-4-oxo-2,3,4,5-tetrahydro-1H-1,5-benzodiazepine-7-carboxamide] | 4620 | 3.71 |
| Cc1nocc1C(=O)N1c2ccc(C(=O)NCCC3CCC3)cc2NC(=O)C(C)C1C (single isomer, unassigned) [Example 14, N-(2-cyclobutylethyl)-2,3-dimethyl-1-[(3-methyl-1,2-oxazol-4-yl)carbonyl]-4-oxo-2,3,4,5-tetrahydro-1H-1,5-benzodiazepine-7-carboxamide] | > 20000 | 1.15 |
| Cc1nocc1C(=O)N1c2ccc(C(=O)NCCC3CCC3)cc2NC(=O)C(C)C1C (single isomer, unassigned) [Example 15, N-(2-cyclobutylethyl)-2,3-dimethyl-1-[(3-methyl-1,2-oxazol-4-yl)carbonyl]-4-oxo-2,3,4,5-tetrahydro-1H-1,5-benzodiazepine-7-carboxamide] | ≥ 20000 | 1.27 |
| Cc1nocc1C(=O)N1c2ccc(C(=O)NCCC3CCC3)cc2NC(=O)C(C)C1C (single isomer, unassigned) [Example 16, N-(2-cyclobutylethyl)-2,3-dimethyl-1-[(3-methyl-1,2-oxazol-4-yl)carbonyl]-4-oxo-2,3,4,5-tetrahydro-1H-1,5-benzodiazepine-7-carboxamide] | 3380 | 3.51 |
| CC1C(=O)Nc2cc(C(=O)NCCC3CCC3)ccc2N(C(=O)N2CCC(N)CC2)C1C (single isomer, unassigned) [Example 21, 1-[(4-aminopiperidin-1-yl)carbonyl]-N-(2-cyclobutylethyl)-2,3-dimethyl-4-oxo-2,3,4,5-tetrahydro-1H-1,5-benzodiazepine-7-carboxamide] | 54.2 | 9.35 |
| CC1C(=O)Nc2cc(C(=O)NCCC3CCC3)ccc2N(C(=O)N2CCC(N)CC2)C1C (single isomer, unassigned) [Example 22, 1-[(4-aminopiperidin-1-yl)carbonyl]-N-(2-cyclobutylethyl)-2,3-dimethyl-4-oxo-2,3,4,5-tetrahydro-1H-1,5-benzodiazepine-7-carboxamide] | 22.3 | 9.50 |
| C[C@H]1CC(=O)Nc2cc(C(=O)NCCC3CC3)ccc2N1C(=O)N1CC2CC2C1 (stereo partly drawn) [Example 23, (2S)-1-(3-azabicyclo[3.1.0]hex-3-ylcarbonyl)-N-(2-cyclopropylethyl)-2-methyl-4-oxo-2,3,4,5-tetrahydro-1H-1,5-benzodiazepine-7-carboxamide] | 58.9 | 9.88 |
| C[C@H]1CC(=O)Nc2cc(C(=O)NCCC3CC3)ccc2N1C(=O)N1CCC(F)(F)C1 [Example 24, (2S)—N-(2-cyclopropylethyl)-1-[(3,3-difluoropyrrolidin-1-yl)carbonyl]-2-methyl-4-oxo-2,3,4,5-tetrahydro-1H-1,5-benzodiazepine-7-carboxamide] | 706 | 7.35 |
| C[C@H]1CC(=O)Nc2cc(C(=O)NCCC3CC3)ccc2N1C(=O)N1CCC(F)(F)CC1 [Example 25, (2S)—N-(2-cyclopropylethyl)-1-[(4,4-difluoropiperidin-1-yl)carbonyl]-2-methyl-4-oxo-2,3,4,5-tetrahydro-1H-1,5-benzodiazepine-7-carboxamide] | 2300 | 6.12 |
| C[C@H]1CC(=O)Nc2cc(C(=O)NCCC3CC3)ccc2N1C(=O)N1CCN(CCO)CC1 [Example 26, (2S)—N-(2-cyclopropylethyl)-1-{[4-(2-hydroxyethyl)piperazin-1-yl]carbonyl}-2-methyl-4-oxo-2,3,4,5-tetrahydro-1H-1,5-benzodiazepine-7-carboxamide] | 1260 | 6.08 |
| CCN1CCN(C(=O)N2c3ccc(C(=O)NCCC4CC4)cc3NC(=O)C[C@@H]2C)CC1 [Example 27, (2S)—N-(2-cyclopropylethyl)-1-[(4-ethylpiperazin-1-yl)carbonyl]-2-methyl-4-oxo-2,3,4,5-tetrahydro-1H-1,5-benzodiazepine-7-carboxamide] | 520 | 8.77 |
| CCN1CCC(N(C)C(=O)N2c3ccc(C(=O)NCCC4CC4)cc3NC(=O)C[C@@H]2C)CC1 [Example 28, (2S)—N^7-(2-cyclopropylethyl)-N^1-(1-ethylpiperidin-4-yl)-N^1,2-dimethyl-4-oxo-2,3,4,5-tetrahydro-1H-1,5-benzodiazepine-1,7-dicarboxamide] | 130 | 9.94 |
| C[C@H]1CC(=O)Nc2cc(C(=O)NCCC3CC3)ccc2N1C(=O)N1CCC(NCC(F)(F)F)CC1 [Example 29, (2S)—N-(2-cyclopropylethyl)-2-methyl-4-oxo-1-({4-[(2,2,2-trifluoroethyl)amino]piperidin-1-yl}carbonyl)-2,3,4,5-tetrahydro-1H-1,5-benzodiazepine-7-carboxamide] | 679 | 5.51 |
| C[C@H]1CC(=O)Nc2cc(C(=O)NCCC3CC3)ccc2N1C(=O)N1CCN(CC(F)(F)F)CC1 [Example 30, (2S)—N-(2-cyclopropylethyl)-2-methyl-4-oxo-1-{[4-(2,2,2-trifluoroethyl)piperazin-1-yl]carbonyl}-2,3,4,5-tetrahydro-1H-1,5-benzodiazepine-7-carboxamide] | 787 | 5.69 |
| C[C@H]1CC(=O)Nc2cc(C(=O)NCCC3CC3)ccc2N1C(=O)N(C)C1CCN(CC(F)(F)F)CC1 [Example 31, (2S)—N^7-(2-cyclopropylethyl)-N^1,2-dimethyl-4-oxo-N^1-[1-(2,2,2-trifluoroethyl)piperidin-4-yl]-2,3,4,5-tetrahydro-1H-1,5-benzodiazepine-1,7-dicarboxamide] | 2520 | 2.79 |
| C[C@H]1CC(=O)Nc2cc(C(=O)NCCC3CC3)ccc2N1C(=O)N1CCCNCC1 [Example 33, (2S)—N-(2-cyclopropylethyl)-1-(1,4-diazepan-1-ylcarbonyl)-2-methyl-4-oxo-2,3,4,5-tetrahydro-1H-1,5-benzodiazepine-7-carboxamide] | 46 | 10.17 |
| C[C@H]1CC(=O)Nc2cc(C(=O)NCCC3CC3)ccc2N1C(=O)N1CC[C@H](N)C1.Cl [Example 37, (2S)-1-{[(3S)-3-aminopyrrolidin-1-yl]carbonyl}-N-(2-cyclopropylethyl)-2-methyl-4-oxo-2,3,4,5-tetrahydro-1H-1,5-benzodiazepine-7-carboxamide hydrochloride (1:1)] | 215 | 8.66 |
| C[C@H]1CC(=O)Nc2cc(C(=O)NCCC3CC3)ccc2N1C(=O)N1CC[C@@H](N)C1.Cl [Example 39, (2S)-1-{[(3R)-3-aminopyrrolidin-1-yl]carbonyl}-N-(2-cyclopropylethyl)-2-methyl-4-oxo-2,3,4,5-tetrahydro-1H-1,5-benzodiazepine-7-carboxamide hydrochloride (1:1)] | 584 | 7.25 |
| C[C@H]1CC(=O)Nc2cc(C(=O)NCCC3CC3)ccc2N1C(=O)N1CCNCC1 [Example 41, (2S)—N-(2-cyclopropylethyl)-2-methyl-4-oxo-1-(piperazin-1-ylcarbonyl)-2,3,4,5-tetrahydro-1H-1,5-benzodiazepine-7-carboxamide] | 265 | 7.22 |
